# From US8394355B2, “Use of UTP for the diagnosis of stenoses and other conditions of restricted blood flow” (P2 science Aps, priority 2009, dated 2013)
# How the values were obtained:
# leg blood flow = conditions: cited from earlier work; for relative vasoactive potency (rank order): only for blood flows around 3.5 Lmin^−1
# [1] = test system: infarct area during acute myocardial infarction; assay: ADP or UTP infusion during myocardial infarction in pigs (unpublished); assay type: in vivo; conditions: infused during acute myocardial infarction, unpublished results
# Description: This is clearly in contrast to previous findings, but is more clinically relevant as most cardiac patients are older. […] This conclusion is also supported by another study by the present inventor in pigs where ADP or UTP was infused during myocardial infarction. […] Therefore, the previous assumptions in patent application WO 2007/065437 relating to the regulation of purinergic receptor activity to modulate vascular tone, particularly for treating hemodynamic conditions by overriding vasoconstriction activity, which could potentially have clinical applications for treatment with UTP agonists or antagonists, is incorrect.
# [2] = test system: pulmonary and systemic circulation of healthy female pigs; assay: Systemic (central intravenous) nucleotide infusion in pigs, hemodynamic response; assay type: in vivo; conditions: for increase in CO (cardiac output): FIG. 7b; for increase in HR from baseline: FIG. 7c; for decrease in SV (stroke volume): FIG. 7d; for MAP lowered by, from baseline: p<0.05, FIG. 7a; for infusion rate at target MAP: target ~50% reduction in baseline MAP, right atrium infusion
# Method: In the present study, the hemodynamic response in the pulmonary and systemic circulation was tested, as well as the effect of central intravenous infusions of ATP, ADP, ADO, and UTP on the heart.
# Infusion rates were aimed at exerting a pronounced systemic response in the lowering of arterial blood pressure, but avoiding a total circulatory collapse.
# Methods: 10 healthy female pigs (Department of Experimental Medicine and Surgery, University of Copenhagen, Denmark) bred as a combination of the Danish Landrace (⅓) and Yorkshire (⅔), with a medium weight of 41±2 kg were investigated.
# Mean arterial blood pressure (MAP) was obtained from the catheter in arcus aorta with the transducer (Pressure Monitoring Kit, Baxter, Deerfield, Ill., USA) positioned at the level of the heart. The left femoral artery was subsequently exposed and an ultrasound doppler probe attached for peripheral femoral artery flow measurements (CM-4000, Cardiomed, Norway). MAP, HR and peripheral flow were monitored and data continuously collected using a PowerLab system (Adinstruments, Australia). Cardiac Output (CO) was determined in triplicates by thermodilution, following an injection of 10 ml of cooled saline solution. Blood samples were withdrawn from catheters in aorta and the right atrium at baseline and at steady state when MAP had decreased maximally or by ˜50%. Calculated variables were: stroke volume of the heart (SV=CO/HR), pulmonary vascular resistance (PVR=(MPAP−PCWP)/CO), systemic vascular resistance (SVR=(MAP−MRAP)/CO), leg vascular conductance (LVC=LBF/(MAP−MRAP)), and arterial (aorta) and mixed venous (pulmonary artery) oxygen content (Hb*1.34*O2 saturation). In the calculation of LVC, MRAP was used as an estimate of mean femoral venous pressure (MFVP), as MRAP was found in a series of measurements to equal MFVP, as estimated in 10 supine pigs. As a potential estimate for myocardial oxygen demand the rate pressure product (RPP=MAP*HR) was also calculated.
# Drug infusions: Each animal was administered the nucleotides ATP, UTP, ADP (Sigma, St. Louis, Mo., USA) and ADO (Item Development AB, Stocksund, Sweden), through the internal jugular vein in the right atrium, in random order following blinded allocation. The nucleotides and ADO were prepared by dissolving in saline so as to achieve the target concentration of ATP (40±0.5 μmol/min), ADP (43±8 μmol/min), UTP (up to 1,600 μmol/min), and ADO (73±7 μmol/min). The nucleotides were infused in increasing dosages at 2 min intervals aiming at reducing MAP by maximally ˜50%. Thereafter, that specific infusion rate was maintained for ˜3-5 min. After each intervention the animal rested for ˜30 min, allowing resting cardiovascular variables to be reestablished. Thereafter, a new cycle of nucleotide infusion was administered. In the present study we aimed to allow the drugs to reduce MAP by ˜50%, but without inducing a hemodynamic and circulatory collapse, to simulate a pronounced state of systemic vasodilation, as may be observed for instance in a shock condition.
SMILES,relative vasoactive potency (rank order) (leg blood flow),effect on infarct area [1],increase in CO (cardiac output) [2],increase in HR from baseline [2],decrease in SV (stroke volume) [2],PVR reached during titration ([2]; dose dependent increase),decrease in LBF (leg blood flow) from baseline ([2]; p<0.05),decrease in SVR (systemic vascular resistance) from baseline ([2]; p<0.05),increase in PVR ([2]; p<0.05),"MAP lowered by, from baseline [2]",infusion rate at target MAP [2],"blood flow increase, % of maximum in the leg during hard exercise (leg blood flow; local infusion)",increase in LVC (leg vascular conductance) from baseline ([2]; p<0.05),"decrease in PVR (pulmonary vascular resistance) from baseline ([2]; pig, in vivo)"
Nc1ncnc2c1ncn2[C@@H]1O[C@H](COP(=O)(O)O)[C@@H](O)[C@H]1O [AMP],1.7,–,–,–,–,–,–,–,–,–,–,–,–,–
Nc1ncnc2c1ncn2[C@@H]1O[C@H](COP(=O)(O)OP(=O)(O)O)[C@@H](O)[C@H]1O [ADP],2.7,diminished it,not alter CO,26.6±4.6%,21.1±5.6%,7.3±1.2 Wood Unit,34.9±10.2%,49.5±2.0%,156.7±38.3%,48.4±1.2%,43.2 ± 7.7 µmol/min,–,–,–
Nc1ncnc2c1ncn2[C@@H]1O[C@H](COP(=O)(O)OP(=O)(O)OP(=O)(O)O)[C@@H](O)[C@H]1O [ATP],100,–,35.1±6.9%,23.0±5.7%,did not significantly change SV,–,22.7±4.2%,61.6±2.1%,–,47.4±1.7%,40.2 ± 0.5 µmol/min,85%,44.7±8.7%,37.8±4.9%
